Test results: patent US10357546B2, “Acceleration of diabetic wound healing” (University of Notre Dame du Lac, priority 2014, dated 2019)

Assays:
MMP-9 [1] = target: T1, MMP-9 (Homo sapiens (Human), UniProt P14780); assay: Enzyme inhibition, MMP-9 catalytic domain; type: biochemical; conditions: for residence time: calculated as 1/koff
Target sequence in this assay (P14780 107-444): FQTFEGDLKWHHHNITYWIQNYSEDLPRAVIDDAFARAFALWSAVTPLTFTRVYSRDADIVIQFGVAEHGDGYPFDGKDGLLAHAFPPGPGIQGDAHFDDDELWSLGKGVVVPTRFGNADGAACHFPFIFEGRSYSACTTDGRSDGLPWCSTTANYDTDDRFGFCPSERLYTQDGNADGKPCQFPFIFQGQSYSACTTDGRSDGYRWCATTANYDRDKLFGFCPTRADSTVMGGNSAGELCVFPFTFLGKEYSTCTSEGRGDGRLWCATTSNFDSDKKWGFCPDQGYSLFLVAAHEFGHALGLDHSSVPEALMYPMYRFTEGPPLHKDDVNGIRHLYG
Method: (§1) Inhibitor stock solutions (10 mM) were prepared freshly in DMSO before enzyme inhibition assays. […] Enzyme inhibition studies were carried out using a Cary Eclipse fluorescence spectrophotometer (Varian, Walnut Creek, Calif., USA).

MMP-2 = MMP-2 (Homo sapiens (Human), UniProt P08253); conditions: for comparison; cited from earlier work
MMP-9 [2] = target: T1, MMP-9; conditions: for comparison; cited from earlier work
Target sequence in this assay (P14780 94-707, species assumed): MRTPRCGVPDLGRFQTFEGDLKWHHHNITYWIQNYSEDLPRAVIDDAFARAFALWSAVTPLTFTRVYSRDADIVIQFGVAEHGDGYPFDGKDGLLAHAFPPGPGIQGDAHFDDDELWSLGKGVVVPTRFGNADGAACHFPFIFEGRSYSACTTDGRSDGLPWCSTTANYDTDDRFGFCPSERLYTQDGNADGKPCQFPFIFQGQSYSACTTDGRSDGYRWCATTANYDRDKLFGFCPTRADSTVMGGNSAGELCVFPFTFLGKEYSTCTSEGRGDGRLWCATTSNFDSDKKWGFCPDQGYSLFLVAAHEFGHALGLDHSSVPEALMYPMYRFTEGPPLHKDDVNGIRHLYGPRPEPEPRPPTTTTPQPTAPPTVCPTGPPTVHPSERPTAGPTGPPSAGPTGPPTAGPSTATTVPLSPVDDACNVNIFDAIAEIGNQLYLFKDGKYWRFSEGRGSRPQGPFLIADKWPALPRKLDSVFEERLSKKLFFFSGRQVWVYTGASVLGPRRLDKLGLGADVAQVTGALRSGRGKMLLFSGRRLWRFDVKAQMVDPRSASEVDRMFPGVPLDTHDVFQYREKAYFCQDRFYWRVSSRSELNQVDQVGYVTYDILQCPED

MMP-8 = MMP-8 (Homo sapiens (Human), UniProt P22894); assay: Enzyme inhibition, MMP-8 catalytic domain; type: biochemical
Method: as §1

[3] = tested on: ultraviolet B irradiated murine skin; conditions: Kobayashi & Shinkai (2005); cited from earlier work

MMP-8, sequence (P22894 100-262): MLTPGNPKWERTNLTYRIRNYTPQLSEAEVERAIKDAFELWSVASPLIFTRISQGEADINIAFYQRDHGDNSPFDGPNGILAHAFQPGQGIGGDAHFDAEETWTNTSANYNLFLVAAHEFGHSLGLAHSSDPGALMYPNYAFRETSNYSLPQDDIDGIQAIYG
MMP-2, sequence (P08253 110-660, species assumed): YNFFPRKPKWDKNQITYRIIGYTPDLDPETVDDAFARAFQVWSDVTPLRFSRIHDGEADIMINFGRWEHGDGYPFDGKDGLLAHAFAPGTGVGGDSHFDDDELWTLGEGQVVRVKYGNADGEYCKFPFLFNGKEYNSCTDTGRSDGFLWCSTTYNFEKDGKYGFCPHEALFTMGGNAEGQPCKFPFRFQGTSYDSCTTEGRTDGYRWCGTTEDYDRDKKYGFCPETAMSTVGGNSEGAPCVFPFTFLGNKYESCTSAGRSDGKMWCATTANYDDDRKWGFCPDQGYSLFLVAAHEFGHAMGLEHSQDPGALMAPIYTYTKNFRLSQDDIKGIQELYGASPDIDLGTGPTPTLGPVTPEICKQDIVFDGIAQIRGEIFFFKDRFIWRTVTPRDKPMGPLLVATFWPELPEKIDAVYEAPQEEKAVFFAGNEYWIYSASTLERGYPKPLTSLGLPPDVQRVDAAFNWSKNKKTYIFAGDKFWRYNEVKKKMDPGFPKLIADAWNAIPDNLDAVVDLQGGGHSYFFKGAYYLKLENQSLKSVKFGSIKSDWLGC

| Compound | Inhibition type, MMP-9 (MMP-9 [1]) | Ki (MMP-8) | Ki (MMP-9 [1]) | residence time (MMP-9 [1]) | other results |
| --- | --- | --- | --- | --- | --- |
| O=S(=O)(CC1CS1)c1ccc(Oc2ccccc2)cc1 (stereo not shown) [SB-3CT, reference compound] | slow-binding | – | – | – | – |
| TIMP1: endogenous protein inhibitor, tissue inhibitor of metalloproteinase | – | – | – | – | residence time of TIMP on MMP-2 (MMP-2): 6.9 min; residence time of TIMP on MMP-9 (MMP-9 [2]): 7.9 min |
| CCOC(=O)Oc1ccc(Oc2ccc(S(=O)(=O)CC3CS3)cc2)cc1 (stereo not shown) [ND-395] | slow-binding | 11 µM | 0.93 µM | 119 min | – |
| CCC(=C/[C@H](C)C/C=C/C(C)=C/[C@@H](C)C(=O)[C@@H](C)[C@H](O)[C@@H](C)C/C(C)=C/C(=O)O)/C=C/[C@@H]1OC(=O)C=C[C@@H]1C [leptomycin B] | – | – | – | – | inflammation in ultraviolet B irradiated murine skin [3]: suppressed inflammation |
| CCOC(=O)Nc1ccc(Oc2ccc(S(=O)(=O)CC3CS3)cc2)cc1 (stereo not shown) [ND-394] | slow-binding | 15 µM | 0.86 µM | 25.6 min | Inhibition type, MMP-8 (MMP-8): non-competitive |
